Converted amounts (≈) assume the structure as drawn.
Tests used:
DPAGT1 = target: T1, DPAGT1 (Homo sapiens, UniProt Q9H3H5); experiment: Radiolabeled substrate enzyme activity assay; format: biochemical, H. sapiens; settings: purified DPAGT1 enzyme, Figure 6F
T1 construct: H. sapiens DPAGT1 (1-408, N-terminal 6 x HIS tag, TEV cleavage site); 6xHis purification tag with TEV site (N, cleaved yes); made in house; host or cells: Spodoptera frugiperda Sf9 insect cells (baculovirus)
T1 sequence (Q9H3H5 1-408): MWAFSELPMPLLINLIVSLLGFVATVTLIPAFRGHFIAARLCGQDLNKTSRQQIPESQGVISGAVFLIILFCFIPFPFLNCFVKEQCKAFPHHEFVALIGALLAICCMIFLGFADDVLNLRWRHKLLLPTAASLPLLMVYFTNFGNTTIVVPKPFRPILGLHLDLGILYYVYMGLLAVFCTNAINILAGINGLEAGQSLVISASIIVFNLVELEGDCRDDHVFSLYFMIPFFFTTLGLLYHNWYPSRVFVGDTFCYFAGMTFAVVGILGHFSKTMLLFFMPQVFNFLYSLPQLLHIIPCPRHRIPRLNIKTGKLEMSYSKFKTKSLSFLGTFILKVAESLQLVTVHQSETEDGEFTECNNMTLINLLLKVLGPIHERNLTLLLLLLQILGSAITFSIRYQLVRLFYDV
Procedure: 2 μl of 2 μM DPAGT1 WT or mutant proteins in GFB buffer supplemented with 5mM extra MgCl2, 1% OGNG/CHS/cardiolipin and dolichyl monophosphate was combined with 2 μl of UDP-N-acetyl [1-14C] […] The reaction was terminated by the addition of 6 μl of 100% methanol and immediately transferred onto ice. 1 μl of sample was spotted onto a silica coated TLC plate in triplicate and run with a mobile phase consisting of chloroform, methanol, and water at a 65:25:4 ratio respectively. After the run, the TLC plate was dried thoroughly, wrapped in cling film, incubated with a phosphor imaging substrate for 4 days, then phosphor imaged using a Biorad. The pixel density of the spots corresponding to the hydrophobic product was divided by combined pixel density of the product and the substrate and multiplied by the known concentration of substrate added to ascertain the amount of product formed.

E. coli ATCC25922 = experiment: Micro-broth dilution and drop plate antimicrobial susceptibility test; format: cell-based; settings: Escherichia coli
[1] = Human plasma protein binding assay; format: in vitro ADME; settings: read-out: human plasma protein binding, bound (converted)
in vivo = experiment: in vivo; design: species or system C57BL/6 mice; settings: ip; for concentration at 0.5 h / concentration at 1 h / concentration at 2 h / concentration at 4 h / concentration at 6 h / concentration at 24 h: female, C57BL/6, mouse, 30 mg/kg
Procedure: Test compound was dosed to sixteen female C57BL/6 mice by intraperitoneal injection in a volume of 0.6 ml. To reconstitute TUN-8,8 for intraperitoneal injections, compound (1 mg) was dissolved in 0.1 ml ethanol and subsequently diluted with 0.9 ml 1% Tween 80 in Dulbecco’s PBS. The mixture was warmed to 37 °C, vortexed and sonicated followed by sterile filtration through a 0.2 μm filter. Blood samples were taken from the tail vein of the mice at pre-determined time intervals post-dose, and serum collected after 4 h on ice. 30 μl serum samples were prepared with 30 μl internal standard and 20 μl of water or spiked standard along with 240 μl of ACN/MeOH mix (3:1) to precipitate proteins. Samples were centrifuged 13 krpm for 5 minutes and 2 μl injected into LC-MS/MS system. Calibration standard was prepared 1 mg of TUN-8,8 to 1 ml DMSO and successively diluted by a factor of 3. TUN-9,9 IS solution was prepared to 200 μg/ml in DMSO.
LC-MS/MS was performed on an Agilent 1290 Infinity HPLC coupled to an Agilent 6460C triple quadrupole mass selective detector with electrospray ionization in positive mode. TUN-8,8 and TUN-9,9 (as an internal standard) were detected using their M+H precursors ions with 514.1 and 528.2 Da/z product ions produced in a collision cell using collision energy 12 V. Capillary voltage was 3000 V and ESI used jet stream technology with sheath voltage 2000 V. The column was an Agilent C18 Poroshell 120 2.7 μm with dimensions 2.1 x 50 mm at 40 °C. Mobile phase was water (A) and acetonitrile (B) each with 0.1% (v/v) formic acid. […] Water for LC-MS/MS was purified by a Barnstead Diamond system to 18.2 MΩ-cm resistivity. Acetonitrile (ACN) and Methanol were HPLC grade from Fisher (Fairlawn NJ, USA) and formic acid was supplied from EMD Millipore Corp (Darmstadt, Germany). DMSO was ACS grade manufactured by Amresco LLC in Solon Ohio USA.

Mtb-infected mice = experiment: Mouse infection, antitubercular activity
Mtb H37Rv ATCC27294 = experiment: Macromolecular incorporation assay (radiolabeled glucosamine); settings: within 48 h, 10x MIC
[2] = two weeks, 10 mg.kg^-1 ip, vs vehicle control

SMILES: CCCCCCCC(=O)N[C@H]1[C@H](O[C@H]2O[C@H](CO)[C@@H](O)[C@H](O)[C@H]2NC(=O)CCCCCCC)O[C@H](C[C@@H](O)[C@H]2O[C@@H](n3ccc(=O)[nH]c3=O)[C@H](O)[C@@H]2O)[C@H](O)[C@@H]1O [TUN-8,8, Di-N-octanoyl-tunicamycin]
- effect on DPAGT1 catalytic activity (DPAGT1): negligible effect
- IC50 (E. coli ATCC25922): 123 µg/mL (≈ 150 µM)
- MBC (E. coli ATCC25922): 400 µg/mL (≈ 488 µM)
- MIC (E. coli ATCC25922): 330 ± 120 µg/mL (≈ 403 µM)
- fraction unbound [1]: 0.018
- concentration at 0.5 h (in vivo; first series): 42.7 ± 28.3 µM
- concentration at 1 h (in vivo; first series): 34.6 ± 7.4 µM
- concentration at 2 h (in vivo; first series): 23.7 ± 9.25 µM
- concentration at 4 h (in vivo; first series): 1.32 ± 1.09 µM
- concentration at 6 h (in vivo; first series): 0.21 ± 0.12 µM
- concentration at 24 h (in vivo; first series): 0.06 ± 0.08 µM
- concentration at 0.5 h (in vivo; second series): 52.1 ± 34.5 µM
- concentration at 1 h (in vivo; second series): 42.3 ± 9.04 µM
- concentration at 2 h (in vivo; second series): 28.9 ± 11.3 µM
- concentration at 4 h (in vivo; second series): 1.61 ± 1.33 µM
- concentration at 6 h (in vivo; second series): 0.26 ± 0.15 µM
- concentration at 24 h (in vivo; second series): 0.07 ± 0.1 µM
- bioavailability (in vivo; mouse): good bioavailability
- toxicity in infected mice (Mtb-infected mice; precluded testing beyond 2 weeks): clinical signs of toxicity
- reduction in bacterial burdens in lungs (Mtb-infected mice; [2]): ~10 fold
- reduction in bacterial burdens in spleens (Mtb-infected mice; [2]): ~5 fold
- glucosamine incorporation (Mtb H37Rv ATCC27294): reduced
